{"source": "patent US20040247571A1", "about": "“Neural cells expressing tyrosine hydroxylase” (priority 2001, published 2004)", "molecules": {"B1": {"name": "GDNF: Glial cell-line Derived Neurotrophic Factor (protein, UniProt P39905 78-211, looked up)", "Glial cell line-derived …": "SPDKQMAVLPRRERNRQAAAANPENSRGKGRRGQRGKNRGCVLTAIHLNVTDLGLGYETKEELIFRYCSGSCDAAETTYDKILKNLSRNRRLVSDKVGQACCRPIAFDDDLSFLDDNLVYHILRKHSAKRCGCI"}, "B2": {"name": "IL-1α: Interleukin (protein, UniProt P01583 113-271, looked up)", "Interleukin-1 alpha": "SAPFSFLSNVKYNFMRIIKYEFILNDALNQSIIRANDQYLTAAALHNLDEAVKFDMGAYKSSKDDAKITVILRISKTQLYVTAQDEDQPVLLKEMPEIPKTITGSETNLLFFWETHGTKNYFTSVAHPNLFIATKQDYWVCLAGGPPSITDFQILENQA"}}}
{"test_system": "Human neural progenitor cells expanded in EGF/bFGF/LIF (991013FBr)", "test": "Importance of the various factors for TH induction", "type": "cell-based", "details": "one factor omitted from the cocktail of Example 1, 3 days", "experimental": "(§1) Cultures of human neural progenitors established from human fetal forebrain expanded in N2 medium supplemented with EGF/bFGF/LIF or EGF/bFGF/CNTF as indicated were mechanically passaged and maintained in expansion medium for 5-7 days. The small spheres were then plated on glass coverslips coated with poly-L-lysine (PLL, 100 μg/ml) and laminin (50 μg/ml) at a cell density of 100.000 cells/cm^2 in N2 medium containing 1% FBS for “default differentiation” or in N2 medium supplemented with aFGF (100 ng/ml), BDNF (50 ng/ml), forskolin (25 μM), DA (10 μM), TPA (100 nM), dbcAMP (100 μM), GDNF (20 ng/ml), IGFI (100 ng/ml), IL-1α (200 pg/ml). N2 medium consists of DMEM:F12 (1:1) supplemented with N2 (insulin, transferrin, selenium, progesterone and putrescine), 0.6% glucose and 5 mM HEPES. After 3 days incubation, cells were fixed in 4% paraformaldehyde in PBS for 20 min at room temperature. The cells were washed three times with PBS, followed by overnight incubation with primary antibody (rabbit anti-TH, PelFreez 1:100 or Chemicon 1:800) diluted in PBS incubation buffer which contained 10% normal goat serum, 0.3% Triton X-100 (Sigma) and 1% BSA at 4° C. in a humidified chamber. The cells were washed with PBS, and incubated for 1 hr at room temperature in the dark with secondary antibody (anti-rabbit Cy3, (Chemicon 1:500) diluted in incubation buffer. After washing with PBS, nuclei were counterstained with DAPI or Hoechst 33342. Negative controls (omission of the primary antibody) were included in each experiment.\n(§2) To quantify the percentage of TH cells, cells were counted in at least three fields from three to six independent coverslips randomly chosen using a 20× objective. The number of TH-immunoreactive cells in each field was counted. The total cell number was obtained by counting nuclei counterstained with DAPI or Hoechst 33342.\n(§3) Human neural progenitor cells expanded in EGF/bFGF/LIF (991013FBr) cells were seeded as small spheres (5 days after trituration to single cell suspension) on PLL/laminin coated 12 mm coverslips at a cell density of 100.000 cells/cm^2 in N2 medium containing different combinations of the factors described in Example 1. After incubation for 3 days, cells were fixed in 4% PFA and immunostained for TH as described in Example 1."}
{"molecule": "IGF-I: Insulins (IGF-I, IGF-II, insulin)", "effect of omitting the factor from the cocktail on induction of TH positive cells": "did not affect induction of TH positive cells"}
{"molecule": "NCCc1ccc(O)c(O)c1", "note": "[dopamine, reference compound]", "effect of omitting the factor from the cocktail on induction of TH positive cells": "did not affect induction of TH positive cells"}
{"molecule": "BDNF: Brain Derived Neurotrophic Factor", "effect of omitting the factor from the cocktail on induction of TH positive cells": "did not affect induction of TH positive cells"}
{"molecule": "B1", "effect of omitting the factor from the cocktail on induction of TH positive cells": "did not affect induction of TH positive cells"}
{"molecule": "B2", "effect of omitting the factor from the cocktail on induction of TH positive cells": "did not affect induction of TH positive cells"}
{"test_system": "Human neural progenitor cells expanded in EGF/bFGF/LIF (991013FBr)", "test": "Importance of the various factors for TH induction", "type": "cell-based", "details": "same concentration (100 ng/ml), 3 days", "experimental": "as §1, §2, §3"}
{"molecule": "FGF-2/bFGF: basic fibroblast growth factor", "effect of replacing FGF-1/aFGF in the cocktail on TH immunoreactive cells": "without any effect on numbers or morphology of TH immunoreactive cells"}
